In patent US20140227375A1, “PIP-2 Inhibition-Based Antiviral and Anti-Hyperlipidemic Therapies” (priority 2008, published 2014):

Target: HCV replication
Experiment: Luciferase reporter-linked transient HCV replication assay (FL-J6/JFH-5′C19Rluc2AUbi RNA)
Assay type: cell-based, hepatitis C virus (HCV)
Experimental: FIGS. 7A-7B. A PIP-2 ligand inhibits HCV replication in a dose-dependent manner. Luciferase reporter-linked HCV replication assay. Huh 7.5 cells were electroporated with 10 ug of in vitro-transcribed wild type, FL-J6/JFH-5′C19Rluc2AUbi RNAs. Electroporated cells were treated with […] of neomyin. Renilla luciferase activities were measured at 5 days after electroporation. Alamar blue assays were performed to compare relative cell viabilities.
The NS5A PIP2 interaction is amenable to pharmacologic disruption. […] Such inhibitors represent a valuable new class of anti-HCV agents to be included in future therapeutic cocktails designed to maximize efficiency of, and minimize resistance to, therapies for treating hepatitis C.
The electroporated cells were diluted in 18 ml of cell culture medium. 1 ml of cells was aliquoted in 6 well tissue culture plates. Electroporated cells were treated with 0, 172, 345, 689, 1378, and 2756 μM of neomyin for 5 days. Renilla luciferase activities were measured by using renilla luciferase kit from Promega (Madison, Wis.).

With neomycin the EC50 (Renilla luciferase activity 5 days after electroporation, read-out: EC50 against HCV replication) was 200 µM and the “inhibition of HCV genome replication” value (increasing concentrations of neomycin (0-2756 μM), 5 days) was “dose-dependent increase in inhibition of HCV genome replication”.
